{"source": "patent US20220133835A1", "about": "“ANTIDIABETIC COMPOSITION COMPRISING GINGER EXTRACT OBTAINED FROM MICROWAVE-PROCESSED GINGER AND METHOD OF PREVENTING OR TREATING DIABETIS MELLITUS” (priority 2020, published 2022)", "key": {"INS-1 cells [1]": {"tested_on": "INS-1 cells", "test": "INS-1 cell toxicity (CCK-8 cell viability)", "conditions": "for Cell viability (%): 24 hours, INS-1 cells, CCK-8; for toxicity against INS-1 cells: summary of Tables 1 and 2, up to 5 μg/mL or 5 μM", "description": "Cell line INS-1 (Biohermes, Shanghai, China) is a […] insulinoma species and has insulin secretion ability. INS-1 cells were cultured in RPMI1640 (Cellgro, Manassas, Va., USA) medium supplemented with 10% fetal bovine serum (FBS), 100 units/mL penicillin G, 100 μg/mL streptomycin, 10 mM HEPES, 2 mM L-glutamine, 1 mM sodium pyruvate and 0.05 mM 2-mercapto ethanol under a condition of a temperature of 37° C., 90% air, and 10% CO2. Among the above-mentioned components, reagents not mentioned by the manufacturer were purchased from Gibco BRL, Life Technologies. The cultured INS-1 cells were inoculated in each well of a 96-well plate in the number of 1×10^4 in a medium of 100 μL and cultured for 24 hours to stabilize the cells. Next, the ginger extract, fraction thereof, and single compounds were added to a specific concentration, followed by culturing for 24 hours. Next, 10 μL of a CCK-8 reagent (Dojindo Laboratories, Japan) was added to each well, followed by culturing at a temperature of 37° C. After 1 hour, cell viability was measured by measuring absorbance at a wavelength of 450 nm on a BIO-TEK (Winooski, Vt., USA) microplate reader. The specific concentrations of the ginger extract and a fraction thereof were set to 1 μg/m L, 2.5 μg/mL, and 5 μg/mL, and the specific concentrations of the single compound were set to 1 μM, 2.5 μM, and 5 μM. Cell viability in Tables 1 and 2 was calculated as follows. Cell viability (%)=A/B×100 A: absorbance of sample to which a reagent is […]"}, "INS-1 cells [2]": {"tested_on": "INS-1 cells", "test": "Glucose stimulated insulin secretion (GSIS) of INS-1 cell", "format": "cell-based, rat", "conditions": "for Stimulation index (SI): insulin secreted at 16.7 mM glucose divided by that at 3.3 mM glucose; for insulin secretion of INS-1 cells: summary in words of Tables 3 and 4", "description": "Cell line INS-1 (Biohermes, Shanghai, China) is a […] insulinoma species and has insulin secretion ability. INS-1 cells were cultured in RPMI1640 (Cellgro, Manassas, Va., USA) medium supplemented with 10% fetal bovine serum (FBS), 100 units/mL penicillin G, 100 μg/mL streptomycin, 10 mM HEPES, 2 mM L-glutamine, 1 mM sodium pyruvate and 0.05 mM 2-mercapto ethanol under a condition of a temperature of 37° C., 90% air, and 10% CO2. Among the above-mentioned components, reagents not mentioned by the manufacturer were purchased from Gibco BRL, Life Technologies. 5×10^5 cultured INS-1 cells were inoculated in each well of the 12-well plate in the same medium of 2 mL and cultured for 24 hours under the same condition as described in Section (1) INS-1 cell culture to stabilize the cells. Then, 114 mM sodium chloride (NaCl), 4.4 mM potassium chloride (KCl), 1 mM magnesium sulfate (MgSO4), 1.28 mM calcium chloride (CaCl2)), 29.5 mM sodium hydrogen carbonate (NaHCO3), 10 mM HEPES; Gibco BRL Life Technologies), and 0.1% bovine serum albumin (BSA) were mixed, and the cells were washed twice with 2 mL of Krebs-Ringer buffer with a hydrogen ion concentration of pH 7.4. Thereafter, 2 mL of Krebs-Ringer buffer was added to the washed cells and incubated for 1 hour. Then, the ginger extract, each fraction, and each compound were incubated for 30 minutes in 1.8 mL of Krebs-Ringer buffer at a specific concentration. The specific concentrations of the ginger extract and a fraction thereof were set to 1 μg/m L, 2.5 μg/mL, and 5 μg/mL, and the specific concentrations of the single compound were set to 1 μM, 2.5 μM, and 5 μM. 0.2 mL of Krebs-Ringer buffers containing 33 mM and 167 mM glucose were each added to the wells and incubated for 1 hour. Thereafter, after centrifugation at 12,000 revolutions per minute (rpm) for 10 minutes at a temperature of 4° C., the supernatant was taken, and the amount of insulin was measured with a Rat insulin RIA kit (Gentaur Molecular Products, Belgium). The stimulation index (SI) is a value obtained by dividing a value measured at a high glucose concentration, that is, the amount of insulin secreted by stimulation of a 16.7 mM glucose concentration by a value measured at a low glucose concentration, that is, the amount of insulin secreted by stimulation of a 3.3 mM glucose concentration. As a positive control, gliclazide was used at concentrations of 2.5 μM, 5.0 μM, 10 μM, and 20 μM."}, "ICR mice": {"tested_on": "ICR mice", "test": "Oral glucose tolerance test (OGTT)", "format": "in vivo, mouse", "conditions": "100 mg/kg oral 1 hour before glucose 2 g/Kg, caudal vein blood at 0-120 minutes, vs control and unprocessed/6-gingerol group", "description": "ICR mice were used for OGTT experiments. ICR mice were fasted for 12 hours before the experiment, blood was collected from the caudal vein of mice that had been fasted for 12 hours, and the fasting blood glucose level was measured as the initial blood glucose level. Thereafter, experiments were conducted with a group administered with glucose (2 g/Kg) (control), a group administered with glucose and a raw ginger extract (100 mg/kg, not processed), and a group administered with a microwave-processed ginger product (100 mg/kg, processed). After oral administration for each concentration, glucose was orally administered 1 hour later, and measurement was performed by using a blood glucose meter from the caudal vein at 0, 15, 30, 60, and 120 minutes. FIG. 3 is a graph of results of an oral glucose tolerance test of a ginger extract and a microwave-processed ginger product.\nNext, to test the efficacy of a single component of ginger, blood was collected from the caudal vein of mice that had been fasted for 12 hours, and the fasting blood glucose level was measured as the initial blood glucose level. Thereafter, experiments were conducted with a group administered with glucose (2 g/Kg) (control), a group administered with glucose and 6-gingerol (100 mg/kg), and a group administered with glucose and 6-shogaol (100 mg/kg). […]"}, "[3]": {"conditions": "through induction of cell defense mechanisms; cited from earlier work"}}, "note": "Entries after “also recorded” stand apart in the source; their conditions may differ."}
{"compound": "Cc1ccc(S(=O)(=O)NC(=O)NN2CC3CCCC3C2)cc1", "note": "(stereo not shown) [Glyclazide, gliclazide, reference compound]", "values": [{"measurement": "Cell viability (%)", "setting": "INS-1 cells [1]; 1 μM", "result": "99.7 ± 0.2", "unit": "%"}, {"measurement": "Cell viability (%)", "setting": "INS-1 cells [1]; 2.5 μM", "result": "96.3 ± 0.9", "unit": "%"}, {"measurement": "Cell viability (%)", "setting": "INS-1 cells [1]; 5 μM", "result": "91.1 ± 1.4", "unit": "%"}, {"measurement": "Stimulation index (SI)", "setting": "INS-1 cells [2]; 1 μM", "result": "1.3 ± 0.0"}, {"measurement": "Stimulation index (SI)", "setting": "INS-1 cells [2]; 2.5 μM", "result": "1.9 ± 0.1"}, {"measurement": "Stimulation index (SI)", "setting": "INS-1 cells [2]; 5 μM", "result": "3.0 ± 0.1"}]}
{"compound": "CCCCC[C@H](O)CC(=O)CCc1ccc(O)c(OC)c1", "note": "[[6]-gingerol]", "values": [{"measurement": "Cell viability (%)", "setting": "INS-1 cells [1]; 1 μM", "result": "98.1 ± 2.7", "unit": "%"}, {"measurement": "Cell viability (%)", "setting": "INS-1 cells [1]; 2.5 μM", "result": "98.7 ± 2.3", "unit": "%"}, {"measurement": "Cell viability (%)", "setting": "INS-1 cells [1]; 5 μM", "result": "98.2 ± 3.5", "unit": "%"}, {"measurement": "toxicity against INS-1 cells", "setting": "INS-1 cells [1]", "result": "not to exhibit toxicity"}, {"measurement": "Stimulation index (SI)", "setting": "INS-1 cells [2]; 1 μM", "result": "2.4 ± 0.0"}, {"measurement": "Stimulation index (SI)", "setting": "INS-1 cells [2]; 2.5 μM", "result": "2.2 ± 0.1"}, {"measurement": "Stimulation index (SI)", "setting": "INS-1 cells [2]; 5 μM", "result": "2.3 ± 0.1"}, {"measurement": "insulin secretion of INS-1 cells", "setting": "INS-1 cells [2]", "result": "secreted insulin concentration-dependently"}]}
{"compound": "CCCCC/C=C/C(=O)CCc1ccc(O)c(OC)c1", "note": "[[6]-shogaol]", "values": [{"measurement": "increase in blood glucose level", "setting": "ICR mice", "result": "significantly reduced"}, {"measurement": "Cell viability (%)", "setting": "INS-1 cells [1]; 1 μM", "result": "101.1 ± 0.4", "unit": "%"}, {"measurement": "Cell viability (%)", "setting": "INS-1 cells [1]; 2.5 μM", "result": "101.8 ± 0.7", "unit": "%"}, {"measurement": "Cell viability (%)", "setting": "INS-1 cells [1]; 5 μM", "result": "101.2 ± 0.2", "unit": "%"}, {"measurement": "toxicity against INS-1 cells", "setting": "INS-1 cells [1]", "result": "not to exhibit toxicity"}, {"measurement": "Stimulation index (SI)", "setting": "INS-1 cells [2]; 1 μM", "result": "3.0 ± .0"}, {"measurement": "Stimulation index (SI)", "setting": "INS-1 cells [2]; 2.5 μM", "result": "3.5 ± 0.1"}, {"measurement": "Stimulation index (SI)", "setting": "INS-1 cells [2]; 5 μM", "result": "4.8 ± 0.0"}, {"measurement": "insulin secretion of INS-1 cells", "setting": "INS-1 cells [2]", "result": "secreted insulin concentration-dependently; also recorded: promote insulin secretion in INS-1 cells, as compared with other components"}]}
{"compound": "CCCCCCC[C@H](O)CC(=O)CCc1ccc(O)c(OC)c1", "note": "[[8]-gingerol]", "values": [{"measurement": "Stimulation index (SI)", "setting": "INS-1 cells [2]; 1 μM", "result": "1.1 ± 0.0"}, {"measurement": "Stimulation index (SI)", "setting": "INS-1 cells [2]; 2.5 μM", "result": "1.5 ± 0.0"}, {"measurement": "Stimulation index (SI)", "setting": "INS-1 cells [2]; 5 μM", "result": "2.1 ± 0.0"}, {"measurement": "insulin secretion of INS-1 cells", "setting": "INS-1 cells [2]", "result": "secreted insulin concentration-dependently"}]}
{"compound": "CCCCCCC/C=C/C(=O)CCc1ccc(O)c(OC)c1", "note": "[[8]-shogaol]", "values": [{"measurement": "Cell viability (%)", "setting": "INS-1 cells [1]; 1 μM", "result": "94.0 ± 2.6", "unit": "%"}, {"measurement": "Cell viability (%)", "setting": "INS-1 cells [1]; 2.5 μM", "result": "96.3 ± 1.9", "unit": "%"}, {"measurement": "Cell viability (%)", "setting": "INS-1 cells [1]; 5 μM", "result": "92.4 ± 1.7", "unit": "%"}, {"measurement": "toxicity against INS-1 cells", "setting": "INS-1 cells [1]", "result": "not to exhibit toxicity"}, {"measurement": "Stimulation index (SI)", "setting": "INS-1 cells [2]; 1 μM", "result": "1.3 ± 0.1"}, {"measurement": "Stimulation index (SI)", "setting": "INS-1 cells [2]; 2.5 μM", "result": "1.5 ± 0.1"}, {"measurement": "Stimulation index (SI)", "setting": "INS-1 cells [2]; 5 μM", "result": "1.8 ± 0.1"}, {"measurement": "insulin secretion of INS-1 cells", "setting": "INS-1 cells [2]", "result": "secreted insulin concentration-dependently"}]}
{"compound": "CCCCCCCCC[C@H](O)CC(=O)CCc1ccc(O)c(OC)c1", "note": "[[10]-gingerol]", "values": [{"measurement": "Cell viability (%)", "setting": "INS-1 cells [1]; 1 μM", "result": "99.3 ± 1.6", "unit": "%"}, {"measurement": "Cell viability (%)", "setting": "INS-1 cells [1]; 2.5 μM", "result": "100.6 ± 3.3", "unit": "%"}, {"measurement": "Cell viability (%)", "setting": "INS-1 cells [1]; 5 μM", "result": "100.7 ± 3.5", "unit": "%"}, {"measurement": "toxicity against INS-1 cells", "setting": "INS-1 cells [1]", "result": "not to exhibit toxicity"}, {"measurement": "Stimulation index (SI)", "setting": "INS-1 cells [2]; 1 μM", "result": "1.7 ± 0.2"}, {"measurement": "Stimulation index (SI)", "setting": "INS-1 cells [2]; 2.5 μM", "result": "1.7 ± 0.1"}, {"measurement": "Stimulation index (SI)", "setting": "INS-1 cells [2]; 5 μM", "result": "1.5 ± 0.1"}, {"measurement": "insulin secretion of INS-1 cells", "setting": "INS-1 cells [2]", "result": "secreted insulin concentration-dependently"}]}
{"compound": "CCCCCCCCC/C=C/C(=O)CCc1ccc(O)c(OC)c1", "note": "[[10]-shogaol]", "values": [{"measurement": "Cell viability (%)", "setting": "INS-1 cells [1]; 1 μM", "result": "101.9 ± 2.2", "unit": "%"}, {"measurement": "Cell viability (%)", "setting": "INS-1 cells [1]; 2.5 μM", "result": "99.8 ± 3.9", "unit": "%"}, {"measurement": "Cell viability (%)", "setting": "INS-1 cells [1]; 5 μM", "result": "99.6 ± 3.3", "unit": "%"}, {"measurement": "toxicity against INS-1 cells", "setting": "INS-1 cells [1]", "result": "not to exhibit toxicity"}, {"measurement": "Stimulation index (SI)", "setting": "INS-1 cells [2]; 1 μM", "result": "1.9 ± 0.0"}, {"measurement": "Stimulation index (SI)", "setting": "INS-1 cells [2]; 2.5 μM", "result": "1.4 ± 0.0"}, {"measurement": "Stimulation index (SI)", "setting": "INS-1 cells [2]; 5 μM", "result": "1.4 ± 0.1"}, {"measurement": "insulin secretion of INS-1 cells", "setting": "INS-1 cells [2]", "result": "secreted insulin concentration-dependently"}]}
{"compound": "shogaol", "values": [{"measurement": "anticancer activity compared with [6]-gingerol", "setting": "[3]", "result": "more than 10 times"}]}
